Results from patent publication US6680323B2, “Dihydropyrimidines and uses thereof” (Synaptic Pharmaceutical Corporation, priority 1998, dated 2004).
Counter-ions that a name gives are not always drawn.

How the values were obtained:
[1] = biological target: T1, human α2a receptor (Homo sapiens, UniProt P08913); experiment: Competition binding ([3H]rauwolscine) at cloned human α2a receptor; settings: transfected LM(tk−) cells, [3H]rauwolscine 0.5 nM; read-out: Binding affinity hα2a
T1 construct: expressed in transfected cells
T1 sequence (P08913 1-465): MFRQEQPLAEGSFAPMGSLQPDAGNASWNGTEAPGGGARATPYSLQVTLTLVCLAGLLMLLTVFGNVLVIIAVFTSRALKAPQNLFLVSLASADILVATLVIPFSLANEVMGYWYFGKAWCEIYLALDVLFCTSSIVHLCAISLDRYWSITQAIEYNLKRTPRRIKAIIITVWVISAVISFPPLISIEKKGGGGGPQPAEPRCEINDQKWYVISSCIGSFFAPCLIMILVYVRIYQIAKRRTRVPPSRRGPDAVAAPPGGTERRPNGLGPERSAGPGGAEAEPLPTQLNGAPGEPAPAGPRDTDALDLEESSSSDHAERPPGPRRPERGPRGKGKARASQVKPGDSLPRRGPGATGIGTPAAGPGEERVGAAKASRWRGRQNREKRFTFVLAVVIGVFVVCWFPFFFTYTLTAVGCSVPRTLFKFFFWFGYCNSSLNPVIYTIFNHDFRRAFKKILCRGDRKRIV
From the text: (§1) α2 Human Adrenergic Receptors
(§2) To determine the potency of α1 antagonists at the α2 receptors, LM(tk−) cell lines stably transfected with the genes encoding the α2a, α2b, and α2c receptors were used. The cell line expressing the α2a receptor is designated L-α2A, and was deposited on Nov. 6, 1992 under ATCC Accession No. CRL 11180. The cell line expressing the α2b receptor is designated L-NGC-α2B, and was deposited on Oct. 25, 1989 under ATCC Accession No. CRL10275. The cell line expressing the α2c receptor is designated L-α2C, and was deposited on Nov. 6, 1992 under ATCC Accession No. CRL-11181. All the cell lines were deposited with the American Type Culture Collection, 12301 Parklawn Drive, Rockville, Md. 20852, U.S.A. under the provisions of the Budapest Treaty for the International Recognition of the Deposit of Microorganisms for the Purposes of Patent Procedure. Cell lysates were prepared as described above (see Radioligand Binding Assays), and suspended in 25 mM glycylglycine buffer (pH 7.6 at room temperature). Equilibrium competition binding assay were performed using [3H]rauwolscine (0.5 nM), and nonspecific binding was determined by incubation with 10 μM phentolamine. The bound radioligand was separated by filtration through GF/B filters using a cell harvester.

[2] = biological target: T2, human α2c receptor (Homo sapiens, UniProt P18825); experiment: Competition binding ([3H]rauwolscine) at cloned human α2c receptor; settings: transfected LM(tk−) cells, [3H]rauwolscine 0.5 nM; read-out: Binding affinity hα2c
T2 construct: expressed in transfected cells
T2 sequence (P18825 1-462): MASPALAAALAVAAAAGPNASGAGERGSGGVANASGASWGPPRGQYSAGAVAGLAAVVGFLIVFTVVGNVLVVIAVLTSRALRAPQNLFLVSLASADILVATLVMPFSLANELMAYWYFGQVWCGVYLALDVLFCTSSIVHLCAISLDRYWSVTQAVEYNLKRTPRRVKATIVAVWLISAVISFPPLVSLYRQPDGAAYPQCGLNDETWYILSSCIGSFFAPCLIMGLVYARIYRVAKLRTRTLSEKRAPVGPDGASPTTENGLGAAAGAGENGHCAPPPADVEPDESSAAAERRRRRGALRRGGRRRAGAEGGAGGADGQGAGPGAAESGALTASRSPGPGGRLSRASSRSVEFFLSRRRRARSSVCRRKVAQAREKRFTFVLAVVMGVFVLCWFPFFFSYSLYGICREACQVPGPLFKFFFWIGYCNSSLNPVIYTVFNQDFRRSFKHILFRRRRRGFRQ
From the text: as §1, §2

[3] = biological target: T3, human α1b receptor (Homo sapiens, UniProt P35368); experiment: Radioligand binding ([3H]prazosin) at cloned human α1b receptor; settings: membranes of transfected LM(tk−) cells, [3H]prazosin 0.5 nM; read-out: Binding affinity hα1b
T3 construct: The entire coding region of α1b (1563 bp); expressed in transfected cells
T3 sequence (P35368 1-520): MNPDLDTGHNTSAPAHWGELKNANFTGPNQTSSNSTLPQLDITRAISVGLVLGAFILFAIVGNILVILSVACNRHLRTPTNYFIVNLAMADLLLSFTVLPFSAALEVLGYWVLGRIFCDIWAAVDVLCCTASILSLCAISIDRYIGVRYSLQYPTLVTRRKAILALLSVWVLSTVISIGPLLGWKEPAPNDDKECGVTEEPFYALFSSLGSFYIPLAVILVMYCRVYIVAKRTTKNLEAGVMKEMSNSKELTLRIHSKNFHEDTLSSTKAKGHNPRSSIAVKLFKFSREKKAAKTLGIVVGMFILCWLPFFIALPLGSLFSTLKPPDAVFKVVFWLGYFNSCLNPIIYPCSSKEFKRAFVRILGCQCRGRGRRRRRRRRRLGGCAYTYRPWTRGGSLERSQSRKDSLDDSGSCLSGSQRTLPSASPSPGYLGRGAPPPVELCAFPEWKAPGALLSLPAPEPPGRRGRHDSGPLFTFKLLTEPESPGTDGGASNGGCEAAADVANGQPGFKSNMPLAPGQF
Method: The activity of compounds at the different human receptors was determined in vitro using cultured cell lines that selectively express the receptor of interest. These cell lines were prepared by transfecting the cloned cDNA or cloned genomic DNA or constructs containing both genomic DNA and cDNA encoding the human α-adrenergic receptors as follows:
α1b Human Adrenergic Receptor
The entire coding region of α1b (1563 bp), including 200 base pairs and 5′ untranslated sequence (5′ UT) and 600 bp of 3′ untranslated sequence (3′ UT), was cloned into the EcoRI site of pCEXV-3 eukaryotic expression vector.
The construct involved ligating the full-length containing EcoRI brainstem cDNA fragment from λ ZapII into the expression vector. Stable cell lines were selected as described above. The cell line used herein was designated L-α1B and was deposited with the American Type Culture Collection, 12301 Parklawn Drive, Rockville, Md. 20852, U.S.A. under the provisions of the Budapest Treaty for the International Recognition of the Deposit of Microorganisms for the Purposes of Patent Procedure. The cell line L-α1B was accorded ATCC Accession No. CR 11139, on Sep. 29, 1992.
Radioligand Binding Assays for α1 Receptors
Transfected cells from culture flasks were scraped into 5 ml of 5 mM Tris-HCl, 5 mM EDTA, pH 7.5, and lysed by sonication. The cell lysates were centrifuged at 1000 rpm for 5 min at 4° C., and the supernatant was centrifuged at 30,000×g for 20 min at 4° C. The pellet was suspended in 50 mM Tris-HCl, 1 mM MgCl2, and 0.1% ascorbic acid at pH 7.5. Binding of the α1 antagonist [^3H]prazosin (0.5 nM, specific activity 76.2 Ci/mmol) to membrane preparations of LM(tk−) cells was done in a final volume of 0.25 ml and incubated at 37° C. for 20 min. Nonspecific binding was determined in the presence of 10 μM phentolamine. The reaction was stopped by filtration through GF/B filters using a cell harvester. Inhibition experiments, routinely consisting of 7 concentrations of the tested compounds, were analyzed using a non-linear regression curve-fitting computer program to obtain Ki values.

[4] = biological target: T4, human α2b receptor (Homo sapiens, UniProt P18089); experiment: Competition binding ([3H]rauwolscine) at cloned human α2b receptor; settings: transfected LM(tk−) cells, [3H]rauwolscine 0.5 nM; read-out: Binding affinity hα2b
T4 construct: expressed in transfected cells
T4 sequence (P18089 1-450): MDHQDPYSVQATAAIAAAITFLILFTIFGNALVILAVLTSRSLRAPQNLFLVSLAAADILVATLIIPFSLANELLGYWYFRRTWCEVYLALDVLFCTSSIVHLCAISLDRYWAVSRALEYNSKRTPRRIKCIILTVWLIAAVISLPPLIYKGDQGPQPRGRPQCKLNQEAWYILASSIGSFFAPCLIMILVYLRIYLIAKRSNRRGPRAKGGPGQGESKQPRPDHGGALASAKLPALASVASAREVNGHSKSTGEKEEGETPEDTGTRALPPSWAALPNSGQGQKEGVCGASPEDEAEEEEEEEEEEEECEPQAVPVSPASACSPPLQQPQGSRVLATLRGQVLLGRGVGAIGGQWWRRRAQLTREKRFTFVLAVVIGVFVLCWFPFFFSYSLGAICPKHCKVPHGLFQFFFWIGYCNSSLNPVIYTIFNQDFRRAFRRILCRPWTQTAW
From the text: as §1, §2

Work on `COCC1=C(C(=O)OC)[C@H](c2ccc(F)c(F)c2)N(C(=O)NCCC[n+]2ccc(-c3ccccn3)cc2)C(=O)N1` (as salt: chloride) [Compound 3, 4-(2-Pyridyl)-1-{3-[5-carboxymethyl-4-methoxymethyl-2-oxo-6(S)-(3,4-difluorphenyl)-1,2,3,6-tetrahydropyrimidin-1-yl]carboxyaminopropyl}pyridinium chloride] yielded a melting point of 60 to 85 °C.
With `O=C1OCC2=C1C(c1ccc(F)c(F)c1)N(C(=O)NCCCN1CCC(c3ccccn3)CC1)C(=O)N2` (single isomer, unassigned; (+)) (as salt: hydrochloride) [Compound 8, (+)-1-3-{[4-(3,4-Difluorophenyl)-2,5-dioxo-1,2,5,7-tetrahydro-4H-furo[3,4-d]-pyrimidine-3-carbonyl]amino}-propyl-4-(2-pyridyl)-piperidine] the melting point was 90 to 95 °C.
In the case of `COCC1=C(CC(=O)O)C(c2ccc(F)c(F)c2)N(C(=O)NCCC[N+]2([O-])CCC(c3ccccn3)CC2)C(=O)N1` (single isomer, unassigned; (+)) [Compound 4, (+)-4-(2-Pyridyl)-1-{3-[5-carboxymethyl-4-methoxymethyl-2-oxo-6-(3,4-difluorphenyl)-1,2,3,6-tetrahydropyrimidin-1-ylcarbonylamino]propyl}piperidine-1-oxide], the Ki [1] is reported as 22 µM, the Ki [2] is reported as 8 µM and the Ki [3] is reported as 1.35 µM. The Ki [4] was 17 µM.
In the case of `COC(=O)C1=C(c2ccc(F)c(F)c2)N(C(=O)NCCCN2CCC(c3ccccn3)CC2)C(=O)NC1C(=O)O` (single isomer, unassigned; (+)) [Compound 6, (+)-2-Oxo-3-{N-[4-(2-pyridyl)piperidin-1-yl]propyl}carboxamido-4-(3,4-difluorophenyl)-5-methoxycarbonyl-6-carboxy-1,2,3,6-tetrahydropyrimidine], the Ki [1] is reported as > 50 µM, the Ki [2] is reported as > 50 µM and the Ki [3] is reported as > 2 µM. It also gave a Ki [4] of 37.6 µM.
